# Laboratory results reported in patent US8129355B2, “Ketone ligands for modulating the expression of exogenous genes via an ecdysone receptor complex” (priority 2002, dated 2012).
# Like-named read-outs stand apart in the source and are kept apart here.
# Biological target: T1, GAL4 DBD-CfEcR(DEF)/VP16AD-MmRXRE (Choristoneura fumiferana, UniProt O77240)
# T1 sequence (O77240 1-513): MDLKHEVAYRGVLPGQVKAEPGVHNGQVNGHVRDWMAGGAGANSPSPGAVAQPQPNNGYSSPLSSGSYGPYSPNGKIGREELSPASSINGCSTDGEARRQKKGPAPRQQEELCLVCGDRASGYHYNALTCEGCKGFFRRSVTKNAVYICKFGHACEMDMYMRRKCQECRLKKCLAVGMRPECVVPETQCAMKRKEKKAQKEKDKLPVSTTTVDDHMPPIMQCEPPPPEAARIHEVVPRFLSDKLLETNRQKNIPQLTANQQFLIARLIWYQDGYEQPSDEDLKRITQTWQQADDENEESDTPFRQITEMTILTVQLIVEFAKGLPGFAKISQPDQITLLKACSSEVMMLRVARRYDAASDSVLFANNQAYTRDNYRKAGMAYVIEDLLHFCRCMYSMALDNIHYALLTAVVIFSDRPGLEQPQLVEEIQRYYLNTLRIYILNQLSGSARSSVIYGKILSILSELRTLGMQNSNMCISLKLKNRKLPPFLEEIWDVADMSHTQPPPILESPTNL
# Test: cell-based
# Settings: for fold induction at 33 µM: CHO, read-out: Fold Induction Average, 13B3 Assay (33 μM); for 13B3 Rel Max FI: maximum fold induction at any concentration relative to that of GS-E ligand
# How it was run: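 Stable CHO clone 13B3 expressing GAL4 DBD-CfEcR(DEF) and VP16AD-mouse RXR(DE) with GAL4 RE-luciferase reporter. Ligands tested at 8 concentrations, 33–0.01 μM; luciferase read 48 h after treatment. Fold induction versus DMSO; BC50 from three-parameter logistic fit.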
Structure (SMILES),EC50 [µM],fold induction at 33 µM,13B3 Rel Max FI,"EC50 (read-out: 13B3 EC50, average, dose response, three-parameter logistic model) [µM]","Fold Induction Average, 13B3 Assay (33 μM) (single dose 33 μM, RLU ligand treated / RLU DMSO treated cells)","Fold Induction Average, 13B3 Assay (33 μM)"
COc1cccc(C(=O)C2(NC(=O)c3cccc(OC)c3C)CCCCC2)c1 [Example 4],3.46,45,0.64,,,
COc1cccc(C(=O)NC2(C(=O)c3cccc(C)c3)CCCCC2)c1C [Example 7],6.73,3100,0.55,,,
COc1cccc(C(=O)NC2(C(=O)c3cc(C)cc(C)c3)CCCC2)c1C [Example 10],3.27,32700,0.71,,,
COc1cccc(C(=O)NC2(C(=O)c3cc(C)cc(C)c3)CCCCC2)c1C [Example 11],1.8,94700,1.15,,,
COc1cccc(C(=O)NC(C)(Cc2ccccc2)C(=O)c2cc(C)cc(C)c2)c1C (stereo not drawn) [Example 12],> 33,72,0.00,,,
COc1cccc(C(=O)NC2(C(=O)c3cc(C)cc(C)c3)CC2)c1C [Example 13],> 33,3,0.00,,,
COc1cccc(C(=O)NC2(C(=O)c3cc(C)cc(C)c3)CCC2)c1C [Example 14],6.6,1024,0.33,,,
COc1cccc(C(=O)NC2(C(=O)c3ccc(C)cc3)CCCCC2)c1C [Example 15],4.11,371,0.09,,,
COc1cccc(C(=O)NC2(C(=O)c3ccc(F)c(C)c3)CCCC2)c1C [Example 17],4.51,1190,0.01,,,
COc1cccc(C(=O)NC2(C(=O)c3ccc(F)c(C)c3)CCCCC2)c1C [Example 18],3.96,50200,0.29,,,
COc1cccc(C(=O)NC(C)(C(=O)c2cc(C)cc(C)c2)C(C)C)c1C (stereo not drawn) [Example 20],4,,0.92,,,
CCc1c(OC)cccc1C(=O)NC1(C(=O)c2ccccc2)CCCC1 [Example 21],> 33,2,0.00,,,
CCc1c(C(=O)NC2(C(=O)c3ccccc3)CCCC2)ccc2c1OCCO2 [Example 22],> 33,4,0.00,,,
COc1cccc(C(=O)NC2(C(=O)c3cccc(C)c3)CCOCC2)c1C [Example 25],> 33,117,0.00,,,
COc1cccc(C(=O)NC2(C(=O)c3cccc(C)c3)CCSCC2)c1C [Example 26],~20,,0.11,,,
COc1cccc(C(=O)NC2(C(=O)c3cc(C)cc(C)c3)CCOCC2)c1C [Example 27],~20,31600,0.36,,,
COc1cccc(C(=O)NC2(C(=O)c3cc(C)cc(C)c3)CCSCC2)c1C [Example 28],3.25,3180,0.74,,,
COc1cccc(C(=O)NC2(C(=O)c3cc(C)cc(C)c3)CCC3(CC2)OCCO3)c1C [Example 29],> 33,5,0.00,,,
COc1ccccc1C(=O)C(C)(NC(=O)c1cccc(OC)c1C)C(C)C (stereo not drawn) [Example 30],> 33,133,0.00,,,
COc1cccc(C(=O)NC(C)(C(=O)c2cccc(C)c2)C(C)C)c1C (stereo not drawn) [Example 31],> 33,1000,0.08,,,
COc1cccc(C(=O)C(C)(NC(=O)c2cccc(OC)c2C)C(C)C)c1 (stereo not drawn) [Example 32],> 33,96,0.00,,,
COc1cccc(C(=O)NC(C)(C(=O)c2ccc(C)cc2)C(C)C)c1C (stereo not drawn) [Example 33],> 33,78,0.00,,,
COc1cccc(C(=O)NC(C)(C(=O)c2ccccc2)C(C)C)c1C (stereo not drawn) [Example 34],> 33,6,0.00,,,
CCC(CC)(NC(=O)c1cccc(OC)c1C)C(=O)c1ccccc1OC [Example 37],> 33,885,0.08,,,

Structure (SMILES),EC50 [µM],fold induction at 33 µM,13B3 Rel Max FI,"EC50 (read-out: 13B3 EC50, average, dose response, three-parameter logistic model) [µM]","Fold Induction Average, 13B3 Assay (33 μM) (single dose 33 μM, RLU ligand treated / RLU DMSO treated cells)","Fold Induction Average, 13B3 Assay (33 μM)"
CCC(CC)(NC(=O)c1cccc(OC)c1C)C(=O)c1ccc(F)cc1 [Example 38],> 33,18,0.00,,,
COc1ccccc1C(=O)C1(NC(=O)c2cccc(OC)c2C)CCCC1 [Example 40],~15,2170,0.58,,,
COc1cccc(C(=O)NC2(C(=O)c3ccc(F)cc3)CCCC2)c1C [Example 42],> 33,4,0.00,,,
COc1cccc(C(=O)NC2(C(=O)c3ccccc3C)CCCCC2)c1C [Example 44],> 33,36,0.00,,,
COc1ccccc1C(=O)C1(NC(=O)c2cccc(OC)c2C)CCCCC1 [Example 45],1.35,92900,0.67,,,
COc1ccc(C(=O)C2(NC(=O)c3cccc(OC)c3C)CCCCC2)cc1 [Example 46],> 33,102,0.00,,,
CCC(CC)(NC(=O)c1cccc(OC)c1C)C(=O)c1cccc(C)c1 [Example 48],≥ 33,12,0.00,,,
CCC(CC)(NC(=O)c1cccc(OC)c1C)C(=O)c1cccc(OC)c1 [Example 49],> 33,,0.00,,,
CCC(CC)(NC(=O)c1cccc(OC)c1C)C(=O)c1ccc(F)c(C)c1 [Example 50],> 33,1,0.00,,,
CCC(CC)(NC(=O)c1cccc(OC)c1C)C(=O)c1cc(C)cc(C)c1 [Example 51],~15,1380,0.64,,,
COc1cccc(C(=O)NC(C)(CC(C)C)C(=O)c2cccc(C)c2)c1C (stereo not drawn) [Example 52],> 33,114,0.00,,,
COc1cccc(C(=O)C(C)(CC(C)C)NC(=O)c2cccc(OC)c2C)c1 (stereo not drawn) [Example 53],> 33,,0.00,,,
COc1cccc(C(=O)NC(C)(CC(C)C)C(=O)c2cc(C)cc(C)c2)c1C (stereo not drawn) [Example 55],3.42,24700,0.21,,,
COc1cccc(C(=O)NC2(C(=O)c3ccc(F)cc3)CCCCC2)c1C [Example 60],> 33,578,0.01,,,
COc1cccc(C(=O)NC2(C(=O)c3cc(C)cc(C)c3)CCS(=O)(=O)CC2)c1C [Example 62],> 33,3,0.00,,,
COc1cccc(C(=O)NC(C)(C(=O)c2ccccc2C)C(C)C)c1C (stereo not drawn) [Example 63],> 33,14,0.03,,,
COc1ccc(C(=O)C2(NC(=O)c3cccc(OC)c3C)CCCCC2)c(OC)n1 [Example 64],3.79,599,0.81,,,
COc1cc(C(=O)C2(NC(=O)c3cccc(OC)c3C)CCCC2)cc(OC)c1C [Example 65],,,0.03,~20,19,
COc1cc(C(=O)C2(NC(=O)c3cccc(OC)c3C)CCCCC2)cc(OC)c1C [Example 66],23.8,357,0.50,,,
COc1cccc(C(=O)NC2(C(=O)c3cc(F)c(F)c(OC)c3)CCCC2)c1C [Example 67],17.6,555,0.50,,,
COc1cccc(C(=O)NC2(C(=O)c3cc(F)c(F)c(OC)c3)CCCCC2)c1C [Example 68],8.79,819,1.00,,,
COc1cccc(C(=O)NC2(C(=O)c3ccccc3)CCCCC2)c1C [Example 69],19.4,164,0.19,,,
COc1cccc(C(=O)C(C)(C)NC(=O)c2ccccc2OC)c1 [Example 117],,,,,,12
CCCCC(=O)C1(NC(=O)c2cccc(OC)c2C)CCCCC1 [Example 120],14.9,367,0.27,,,
